Columns and labels:
α4β1 integrin = α4β1 integrin (Homo sapiens, UniProt P05556+P13612); conditions: cited from earlier work
αvβ1 integrin = αvβ1 integrin (UniProt G3HZ55+P06756); test: Cell adhesion assay, CHOαv adhering to fibronectin; assay type: cell-based
α5β1 integrin = α5β1 integrin (Homo sapiens, UniProt P05556+P08648); test: Cell adhesion assay, SW480 plated on fibronectin; assay type: cell-based; conditions: for improvement of potency against α5β1 integrin: cell adhesion, versus alkyl-linker compounds
αvβ3 integrin = αvβ3 integrin (Homo sapiens, UniProt P05106+P06756); test: Cell adhesion assay, SW480 transfected with human β3 adhering to fibrinogen; assay type: cell-based
Solubility = assay type: physicochemical
Caco-2 cell = Caco-2 cell permeability assay; assay type: in vitro ADME

Chain of αvβ3 integrin (P06756 31-889 limits assumed): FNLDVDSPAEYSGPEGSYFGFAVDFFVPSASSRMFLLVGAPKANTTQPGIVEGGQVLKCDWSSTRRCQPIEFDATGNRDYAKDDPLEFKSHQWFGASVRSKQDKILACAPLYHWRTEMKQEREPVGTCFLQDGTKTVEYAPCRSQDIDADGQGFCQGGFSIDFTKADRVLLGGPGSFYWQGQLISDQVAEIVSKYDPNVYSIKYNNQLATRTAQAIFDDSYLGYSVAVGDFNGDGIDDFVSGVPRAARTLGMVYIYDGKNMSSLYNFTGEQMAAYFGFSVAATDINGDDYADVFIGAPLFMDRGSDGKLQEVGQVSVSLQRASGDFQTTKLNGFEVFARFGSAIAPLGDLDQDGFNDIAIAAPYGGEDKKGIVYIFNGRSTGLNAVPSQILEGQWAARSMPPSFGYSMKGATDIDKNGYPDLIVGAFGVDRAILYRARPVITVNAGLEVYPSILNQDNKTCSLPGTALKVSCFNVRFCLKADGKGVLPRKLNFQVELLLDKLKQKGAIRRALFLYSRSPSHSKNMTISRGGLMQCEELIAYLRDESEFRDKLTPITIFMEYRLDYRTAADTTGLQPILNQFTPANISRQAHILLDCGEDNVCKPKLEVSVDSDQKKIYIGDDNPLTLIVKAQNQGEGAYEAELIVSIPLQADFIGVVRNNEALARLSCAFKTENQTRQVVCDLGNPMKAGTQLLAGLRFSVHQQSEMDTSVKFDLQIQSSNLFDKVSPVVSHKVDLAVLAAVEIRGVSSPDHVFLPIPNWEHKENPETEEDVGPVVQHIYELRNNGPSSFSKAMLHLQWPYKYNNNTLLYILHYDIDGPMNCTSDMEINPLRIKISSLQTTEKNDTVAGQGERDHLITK
Chain of αvβ3 integrin (P06756 891-1048 partner limits assumed): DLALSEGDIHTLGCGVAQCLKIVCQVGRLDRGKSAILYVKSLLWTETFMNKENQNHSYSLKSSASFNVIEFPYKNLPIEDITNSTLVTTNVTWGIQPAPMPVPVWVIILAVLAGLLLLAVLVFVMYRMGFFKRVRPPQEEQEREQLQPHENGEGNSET
Chain of αvβ3 integrin (P05106 27-788): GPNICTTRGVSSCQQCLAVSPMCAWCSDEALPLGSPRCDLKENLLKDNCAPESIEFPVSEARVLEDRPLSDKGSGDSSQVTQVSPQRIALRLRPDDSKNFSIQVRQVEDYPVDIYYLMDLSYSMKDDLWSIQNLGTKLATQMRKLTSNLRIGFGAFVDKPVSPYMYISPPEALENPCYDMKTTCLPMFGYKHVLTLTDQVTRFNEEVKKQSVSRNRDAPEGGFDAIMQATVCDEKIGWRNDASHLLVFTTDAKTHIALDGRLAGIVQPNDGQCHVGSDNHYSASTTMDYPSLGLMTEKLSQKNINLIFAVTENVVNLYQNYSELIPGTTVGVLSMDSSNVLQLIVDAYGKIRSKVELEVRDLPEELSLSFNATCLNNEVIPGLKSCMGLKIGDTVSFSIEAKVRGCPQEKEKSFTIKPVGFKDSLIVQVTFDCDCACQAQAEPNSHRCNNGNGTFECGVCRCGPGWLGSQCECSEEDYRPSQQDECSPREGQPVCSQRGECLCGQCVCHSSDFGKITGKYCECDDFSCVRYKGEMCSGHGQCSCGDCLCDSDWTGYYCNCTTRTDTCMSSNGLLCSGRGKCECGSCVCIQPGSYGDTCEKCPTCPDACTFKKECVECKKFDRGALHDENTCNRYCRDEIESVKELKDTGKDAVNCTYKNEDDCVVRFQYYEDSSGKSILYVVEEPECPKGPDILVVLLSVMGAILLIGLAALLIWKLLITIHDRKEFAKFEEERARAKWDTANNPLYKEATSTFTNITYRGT
Chain of α5β1 integrin (P08648 42-894 limits assumed): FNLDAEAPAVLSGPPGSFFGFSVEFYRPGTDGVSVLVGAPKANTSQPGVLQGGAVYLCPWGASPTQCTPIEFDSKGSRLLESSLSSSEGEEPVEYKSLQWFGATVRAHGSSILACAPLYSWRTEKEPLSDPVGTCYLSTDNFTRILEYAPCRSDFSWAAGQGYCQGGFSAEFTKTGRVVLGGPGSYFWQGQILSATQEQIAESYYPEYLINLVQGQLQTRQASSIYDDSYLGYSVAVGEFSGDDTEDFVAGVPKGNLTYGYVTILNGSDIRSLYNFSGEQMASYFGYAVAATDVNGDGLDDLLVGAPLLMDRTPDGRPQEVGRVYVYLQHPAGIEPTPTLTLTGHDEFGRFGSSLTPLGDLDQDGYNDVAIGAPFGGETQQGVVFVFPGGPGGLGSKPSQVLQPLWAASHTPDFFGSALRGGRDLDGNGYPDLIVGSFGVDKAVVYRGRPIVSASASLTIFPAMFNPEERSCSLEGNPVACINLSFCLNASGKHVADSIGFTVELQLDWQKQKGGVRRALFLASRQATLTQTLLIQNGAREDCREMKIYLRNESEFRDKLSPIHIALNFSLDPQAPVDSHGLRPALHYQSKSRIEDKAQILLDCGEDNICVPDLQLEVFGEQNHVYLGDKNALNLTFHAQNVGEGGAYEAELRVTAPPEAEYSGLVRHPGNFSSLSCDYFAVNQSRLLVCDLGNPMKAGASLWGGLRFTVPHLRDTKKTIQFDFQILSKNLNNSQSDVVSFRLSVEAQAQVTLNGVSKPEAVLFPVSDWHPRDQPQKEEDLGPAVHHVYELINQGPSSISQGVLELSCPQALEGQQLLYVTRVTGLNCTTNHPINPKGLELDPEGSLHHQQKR
Chain of α5β1 integrin (P08648 895-1049 partner limits assumed): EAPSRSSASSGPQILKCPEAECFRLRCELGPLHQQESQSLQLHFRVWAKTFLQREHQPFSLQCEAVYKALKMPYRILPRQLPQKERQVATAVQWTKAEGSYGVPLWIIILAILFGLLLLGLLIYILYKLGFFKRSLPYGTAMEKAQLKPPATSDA
Chain of α5β1 integrin (P05556 21-798): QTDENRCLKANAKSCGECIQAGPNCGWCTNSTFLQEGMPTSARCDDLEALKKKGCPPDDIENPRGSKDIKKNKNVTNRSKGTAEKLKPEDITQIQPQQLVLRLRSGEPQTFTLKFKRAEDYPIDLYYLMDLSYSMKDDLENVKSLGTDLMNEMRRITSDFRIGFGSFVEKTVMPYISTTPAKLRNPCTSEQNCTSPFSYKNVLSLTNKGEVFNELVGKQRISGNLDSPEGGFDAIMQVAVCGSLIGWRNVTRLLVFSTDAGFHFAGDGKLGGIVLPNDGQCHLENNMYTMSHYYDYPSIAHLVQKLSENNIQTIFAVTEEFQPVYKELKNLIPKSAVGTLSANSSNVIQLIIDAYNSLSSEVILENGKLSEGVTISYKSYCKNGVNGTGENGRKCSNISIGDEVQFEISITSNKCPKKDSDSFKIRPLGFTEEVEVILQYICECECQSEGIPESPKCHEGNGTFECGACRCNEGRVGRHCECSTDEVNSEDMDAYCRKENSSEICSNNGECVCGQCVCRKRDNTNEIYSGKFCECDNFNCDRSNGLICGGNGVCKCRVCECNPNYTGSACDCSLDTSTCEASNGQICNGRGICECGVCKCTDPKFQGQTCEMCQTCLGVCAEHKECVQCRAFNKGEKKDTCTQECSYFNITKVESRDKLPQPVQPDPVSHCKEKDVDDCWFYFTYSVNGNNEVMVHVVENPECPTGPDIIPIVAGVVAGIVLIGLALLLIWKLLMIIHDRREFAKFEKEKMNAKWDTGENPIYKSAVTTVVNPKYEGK
Chain of αvβ1 integrin (P06756 31-889 limits assumed): as the sequence (P06756 31-889 limits assumed) above
Chain of αvβ1 integrin (P06756 891-1048 limits assumed): as the sequence (P06756 891-1048 partner limits assumed) above
Chain of αvβ1 integrin (G3HZ55 21-798): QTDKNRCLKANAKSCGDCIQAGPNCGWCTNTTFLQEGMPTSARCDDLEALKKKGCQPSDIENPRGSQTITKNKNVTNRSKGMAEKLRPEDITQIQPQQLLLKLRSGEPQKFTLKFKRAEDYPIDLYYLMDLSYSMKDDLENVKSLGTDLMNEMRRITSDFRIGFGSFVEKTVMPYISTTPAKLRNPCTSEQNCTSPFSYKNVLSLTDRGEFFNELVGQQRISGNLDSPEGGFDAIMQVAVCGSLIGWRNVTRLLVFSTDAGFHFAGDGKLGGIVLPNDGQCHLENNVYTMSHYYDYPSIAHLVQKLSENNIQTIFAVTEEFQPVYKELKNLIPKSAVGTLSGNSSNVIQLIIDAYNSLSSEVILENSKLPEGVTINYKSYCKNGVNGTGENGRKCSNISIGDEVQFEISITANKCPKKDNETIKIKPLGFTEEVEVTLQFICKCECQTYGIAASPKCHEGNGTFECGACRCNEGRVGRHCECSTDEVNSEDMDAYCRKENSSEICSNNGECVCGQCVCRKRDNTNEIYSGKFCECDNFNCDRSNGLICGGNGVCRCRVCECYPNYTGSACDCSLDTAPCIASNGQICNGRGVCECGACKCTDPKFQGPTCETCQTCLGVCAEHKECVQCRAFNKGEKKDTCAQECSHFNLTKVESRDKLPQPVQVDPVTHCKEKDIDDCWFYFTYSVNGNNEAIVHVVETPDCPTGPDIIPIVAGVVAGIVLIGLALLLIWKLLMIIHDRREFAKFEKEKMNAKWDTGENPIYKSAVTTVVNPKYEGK

SMILES | potency against αvβ1 integrin in cell adhesion assay (in words) (αvβ1 integrin) | potency against α5β1 integrin in cell adhesion assay (in words) (α5β1 integrin) | selectivity against αvβ3 integrin in cell adhesion assay (in words) (αvβ3 integrin) | improvement of potency against α5β1 integrin (α5β1 integrin) | solubility (in words) (Solubility) | permeability in Caco-2 cell assay (in words) (Caco-2 cell) | selectivity against α4β1 integrin (in words) (α4β1 integrin)
N=C(N)NCCCCC(=O)Nc1ccc(C[C@H](NC(=O)[C@@H]2CCCN2S(=O)(=O)c2ccccc2)C(=O)O)cc1 [Compound 4] |  |  |  |  |  |  | marginal selectivity
N=C(N)NCCCCCNC(=O)NC[C@H](NC(=O)[C@@H]1CCCN1S(=O)(=O)c1ccccc1)C(=O)O [Compound 5] | sub-nanomolar potency | sub-micromolar IC50 | excellent selectivity |  |  |  | 
N=C(N)Nc1cccc(C(=O)NNC(=O)NC[C@H](NC(=O)[C@@H]2CCCN2S(=O)(=O)c2ccccc2)C(=O)O)c1 [Compound 12] |  |  | not still satisfactory | more than 10 fold |  |  | 

Now from value to molecule, other results behind:

potency against αvβ1 integrin in cell adhesion assay (in words) (αvβ1 integrin) | potency against α5β1 integrin in cell adhesion assay (in words) (α5β1 integrin) | selectivity against αvβ3 integrin in cell adhesion assay (in words) (αvβ3 integrin) | improvement of potency against α5β1 integrin (α5β1 integrin) | solubility (in words) (Solubility) | permeability in Caco-2 cell assay (in words) (Caco-2 cell) | SMILES | selectivity against α4β1 integrin (in words) (α4β1 integrin)
 |  | not still satisfactory | more than 10 fold |  |  | N=C(N)Nc1cccc(C(=O)NCC(=O)NC[C@H](NC(=O)[C@@H]2CCCN2S(=O)(=O)c2ccccc2)C(=O)O)c1 [Compound 11] | 
sub-nanomolar potency | excellent nanomolar potency | great selectivity |  | limited solubility | poor permeability | N=C(N)Nc1cc(NC(=O)CCCNC(=O)C23CC4CC(CC(C4)C2)C3)cc(C(=O)NCC(=O)NC[C@H](NC(=O)[C@@H]2CCCN2S(=O)(=O)c2ccccc2)C(=O)O)c1 [Compound 15] | 

— paper PMC7700746 (Bioorganic & medicinal chemistry letters, 2020)
